What was measured:
Assay in all cases: relative viability (nuclei count vs DMSO), 5 days (fraction); higher = more cells survive
IDH-C35 + Trametinib = compound: Cc1ccccc1C(C(=O)NC1CCCCC1)N(C(=O)Cn1ccnc1C)c1cccc(F)c1 [IDH-C35] + CC(=O)Nc1cccc(-n2c(=O)n(C3CC3)c(=O)c3c(Nc4ccc(I)cc4F)n(C)c(=O)c(C)c32)c1 [Trametinib] (partner 0.02 µM)
Procedure, shortened: (§1)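 Nuclei were stained with Hoechst during a one-step fixation (final 0.05% Triton X-100, 1% formaldehyde, 1 ug/ml Hoechst) carried out 5 days after dosing, then counted on 4× images. The cells, lung cancer lines in 1536-well plates, had been dosed by pin tool the day after seeding with one drug alone or a fixed anchor-drug dose plus five library-drug doses (not always all listed) in √10 steps. Relative viability is the nuclei count in treated wells divided by that in vehicle wells, and each value is the median of duplicate plates.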

IDH-C35 + Pictilisib = compound: Cc1ccccc1C(C(=O)NC1CCCCC1)N(C(=O)Cn1ccnc1C)c1cccc(F)c1 [IDH-C35] + CS(=O)(=O)N1CCN(Cc2cc3nc(-c4cccc5[nH]ncc45)nc(N4CCOCC4)c3s2)CC1 [Pictilisib] (partner 1 µM)
Procedure, shortened: as §1

IDH-C35 + Foretinib = compound: Cc1ccccc1C(C(=O)NC1CCCCC1)N(C(=O)Cn1ccnc1C)c1cccc(F)c1 [IDH-C35] + COc1cc2c(Oc3ccc(NC(=O)C4(C(=O)Nc5ccc(F)cc5)CC4)cc3F)ccnc2cc1OCCCN1CCOCC1 [Foretinib] (partner 0.25 µM)
Procedure, shortened: as §1

[1] = compound: CC1=C(C(=NN1)C)CC2=C(C3=C(S2)N(C(=O)N(C3=O)C)CC(C)C)C(=O)N4C[C@@H](CO4)O + Cc1nc(Nc2ncc(C(=O)Nc3c(C)cccc3Cl)s2)cc(N2CCN(CCO)CC2)n1 [Dasatinib] (partner 0.075 µM)
Procedure, shortened: as §1

Cell Line	relative viability (IDH-C35 + Trametinib; first compound 0.08 µM)	relative viability (IDH-C35 + Trametinib; first compound 0.253 µM)	relative viability (IDH-C35 + Trametinib; first compound 0.8 µM)	relative viability (IDH-C35 + Trametinib; first compound 2.53 µM)	relative viability (IDH-C35 + Trametinib; first compound 8 µM)	relative viability (IDH-C35 + Pictilisib; first compound 0.08 µM)	relative viability (IDH-C35 + Pictilisib; first compound 0.253 µM)	relative viability (IDH-C35 + Pictilisib; first compound 0.8 µM)	relative viability (IDH-C35 + Pictilisib; first compound 2.53 µM)	relative viability (IDH-C35 + Pictilisib; first compound 8 µM)	relative viability (IDH-C35 + Foretinib; first compound 0.08 µM)	relative viability (IDH-C35 + Foretinib; first compound 0.253 µM)	relative viability (IDH-C35 + Foretinib; first compound 0.8 µM)	relative viability (IDH-C35 + Foretinib; first compound 8 µM)	relative viability ([1]; first compound 0.0025 µM)	relative viability ([1]; first compound 0.007906 µM)	relative viability ([1]; first compound 0.025 µM)	relative viability ([1]; first compound 0.07906 µM)	relative viability ([1]; first compound 0.25 µM)	relative viability (IDH-C35 + Foretinib; first compound 2.53 µM)
LC-2-ad	0.87	0.923	0.954	0.874	0.905	0.595	0.472	0.439	0.441	0.455	0.917	0.938	0.904	0.908	0.726	0.474	0.626	0.545	0.588	
SK-LU-1	0.454	0.489	0.507	0.485	0.536	0.535	0.483	0.641	0.606	0.63	0.833	0.839	0.87	0.901	0.194	0.195	0.192	0.169	0.182	0.878
ChaGo-K-1	0.897	0.878	0.944	0.844	0.899	0.451	0.71	0.742	0.681	0.918	0.871	0.973	0.913	0.839	0.616	0.605	0.565	0.503	0.513	0.928
COR-L 105	0.444	0.451	0.446	0.485	0.39	0.442	0.477	0.354	0.383	0.392	0.948	1.16	0.898	0.898	0.477	0.298	0.34	0.273	0.341	1.07
NCI-H1975	0.384	0.363	0.323	0.345	0.32	0.293	0.322	0.288	0.319	0.326	0.938	0.951	1.01	0.862	0.41	0.36	0.394	0.343	0.39	0.974
NCI-H1993	0.479	0.586	0.632	0.542	0.645	0.902	0.853	0.766	0.743	0.712	0.797	0.688	0.811	0.759	0.614	0.497	0.572	0.596	0.517	0.787
RERF-LC-KJ	0.846	0.831	0.868	0.904	0.779	0.53	0.671	0.529	0.554	0.509	0.941	0.853	0.968	0.888	0.874	0.946	0.751	0.855	0.804	0.867
NCI-H23	0.347	0.456	0.282	0.392	0.325	0.473	0.494	0.526	0.397	0.456	0.912	1.03	1.1	0.846	0.926	1.05	0.82	0.725	0.964	1.04
